Read-outs that look alike come from different tables or passages of the source.

Assay in all cases: SPR
Holding throughout (assay type): binding

In one test the target is T1, SHMT1 (Homo sapiens, UniProt P34896).
T1 sequence (P34896 2-483): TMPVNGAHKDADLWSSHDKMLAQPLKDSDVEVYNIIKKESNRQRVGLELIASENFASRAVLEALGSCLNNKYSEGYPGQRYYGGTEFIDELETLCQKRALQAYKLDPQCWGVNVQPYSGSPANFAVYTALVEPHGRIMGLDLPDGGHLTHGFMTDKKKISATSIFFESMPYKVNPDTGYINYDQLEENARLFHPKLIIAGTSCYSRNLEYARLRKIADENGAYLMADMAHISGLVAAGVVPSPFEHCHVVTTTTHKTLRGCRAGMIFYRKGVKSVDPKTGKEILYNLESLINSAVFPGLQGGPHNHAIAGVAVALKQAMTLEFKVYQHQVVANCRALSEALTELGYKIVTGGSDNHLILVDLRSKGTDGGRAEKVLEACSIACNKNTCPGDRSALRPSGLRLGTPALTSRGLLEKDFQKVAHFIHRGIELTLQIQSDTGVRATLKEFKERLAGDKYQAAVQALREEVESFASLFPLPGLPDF

Test [1] concerns the target T2, serine hydroxymethyltransferase 2 (SHMT2) (Homo sapiens, UniProt P34897).
T2 sequence (P34897 22-504 limits assumed): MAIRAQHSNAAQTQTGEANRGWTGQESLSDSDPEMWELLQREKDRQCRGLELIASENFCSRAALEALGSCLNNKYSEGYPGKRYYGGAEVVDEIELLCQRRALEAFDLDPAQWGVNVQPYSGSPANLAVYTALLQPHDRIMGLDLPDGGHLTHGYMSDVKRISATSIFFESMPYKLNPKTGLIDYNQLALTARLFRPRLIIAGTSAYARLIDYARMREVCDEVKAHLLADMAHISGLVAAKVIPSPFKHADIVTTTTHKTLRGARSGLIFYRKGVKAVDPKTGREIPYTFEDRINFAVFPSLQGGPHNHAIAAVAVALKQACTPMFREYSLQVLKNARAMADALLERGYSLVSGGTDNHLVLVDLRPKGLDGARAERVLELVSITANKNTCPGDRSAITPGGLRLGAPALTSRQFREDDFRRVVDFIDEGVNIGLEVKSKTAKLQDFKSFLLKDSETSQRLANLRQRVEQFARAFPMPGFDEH

Test [2] addresses T2, serine hydroxymethyltransferase 2 (SHMT2). The source holds these as a separate data set.

The Kd is the concentration at which binding is half-saturated. As for `CC1(C)[C@@H](O)CC[C@]2(C)[C@H]3C(=O)C=C4[C@@H]5C[C@@](C)(C(=O)O)CC[C@]5(C)CC[C@@]4(C)[C@]3(C)CC[C@@H]12` [GA, Glycyrrhetinic acid], the figures for the Kd (on SHMT1; in test [1]) were 2370 nM and 2900 nM, respectively.
For the compound `Nc1nc2c(c(=O)[nH]1)NC(CNc1ccc(C(=O)N[C@@H](CCC(=O)O)C(=O)O)cc1)CN2` (stereo partly shown) [THF, Tetrahydrofolic acid], binding in test [2] was put at a Kd of 3.51 µM.
The same measure, in the same setting: the value for `CC1(C)[C@@H](OC(=O)CCC(=O)O)CC[C@]2(C)[C@H]3C(=O)C=C4[C@@H]5C[C@@](C)(C(=O)O)CC[C@]5(C)CC[C@@]4(C)[C@]3(C)CC[C@@H]12` [CBX, Carbenoxolone] was 15.1 µM.

The values above are taken from PMC9117551 (iScience, 2022).
